Experimental data from US11560376B2, “Amino acid compounds and methods of use” (Pliant Therapeutics, Inc., priority 2018, dated 2023).

Target: recombinant human integrin αvβ6 (Homo sapiens (Human), UniProt P06756+P18564)
Assay: Solid phase integrin αvβ6 binding assay
Settings: TGFβ1 LAP as ligand, IC50 presented in four ranges, read-out: αvβ6 Inhibition IC50 (nM) - range
Description: (§1) Microplates were coated with recombinant human integrin αvβ6 (2 μg/mL) in PBS (100 μL/well 25° C., overnight). The coating solution was removed, washed with wash buffer (0.05% Tween 20; 0.5 mM MnCl2; in 1×TBS). The plate was blocked with 200 μL/well of Block Buffer (1% BSA; 5% sucrose; 0.5 mM MnCl2; in 1×TBS) at 37° C. for 2 h. Dilutions of testing compounds and recombinant TGFβ1 LAP (0.67 μg/mL) in binding buffer (0.05% BSA; 2.5% sucrose; 0.5 mM MnCl2; in 1×TBS) were added. The plate was incubated for 2 hours at 25° C., washed, and incubated for 1 hour with Biotin-Anti-hLAP. Bound antibody was detected by peroxidase-conjugated streptavidin. The IC50 values for testing compounds were calculated by a four-parameter logistic regression.
The compounds tested were compound samples prepared according to procedures described in the Synthetic Examples section, with the stereochemical purity as indicated in the Examples.
as §1, with “A third series of exemplary compounds was selected for testing in the solid phase integrin αvβ6 binding assay. The compounds tested were compound samples prepared according to procedures described in the Synthetic Examples section, with the stereochemical purity as indicated in the Examples. As in Example B1, microplates” for “Microplates”

recombinant human integrin αvβ6, sequence (P06756 31-992): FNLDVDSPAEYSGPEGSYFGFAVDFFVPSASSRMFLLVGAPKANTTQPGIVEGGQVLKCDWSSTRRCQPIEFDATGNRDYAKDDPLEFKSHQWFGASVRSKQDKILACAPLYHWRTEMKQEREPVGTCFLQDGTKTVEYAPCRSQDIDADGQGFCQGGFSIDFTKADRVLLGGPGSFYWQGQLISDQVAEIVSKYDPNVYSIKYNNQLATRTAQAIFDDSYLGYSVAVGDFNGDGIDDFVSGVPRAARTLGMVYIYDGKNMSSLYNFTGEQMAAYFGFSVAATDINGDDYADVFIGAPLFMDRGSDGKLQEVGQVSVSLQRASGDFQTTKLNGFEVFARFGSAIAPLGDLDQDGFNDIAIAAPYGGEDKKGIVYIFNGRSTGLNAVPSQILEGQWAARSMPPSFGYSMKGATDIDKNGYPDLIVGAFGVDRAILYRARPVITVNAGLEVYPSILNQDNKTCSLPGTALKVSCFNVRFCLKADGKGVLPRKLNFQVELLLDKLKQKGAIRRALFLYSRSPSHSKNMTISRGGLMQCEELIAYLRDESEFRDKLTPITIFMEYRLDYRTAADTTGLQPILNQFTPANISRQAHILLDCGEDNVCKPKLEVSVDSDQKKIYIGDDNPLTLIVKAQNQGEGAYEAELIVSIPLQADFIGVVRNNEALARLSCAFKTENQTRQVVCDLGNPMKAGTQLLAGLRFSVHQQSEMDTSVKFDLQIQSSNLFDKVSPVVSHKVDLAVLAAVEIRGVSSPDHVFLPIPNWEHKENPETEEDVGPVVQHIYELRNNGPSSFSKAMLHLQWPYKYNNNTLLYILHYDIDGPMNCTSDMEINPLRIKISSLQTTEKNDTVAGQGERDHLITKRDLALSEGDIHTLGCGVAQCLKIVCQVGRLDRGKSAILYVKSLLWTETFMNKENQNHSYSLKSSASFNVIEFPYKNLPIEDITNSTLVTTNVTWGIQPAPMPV
recombinant human integrin αvβ6, sequence (P18564 22-707): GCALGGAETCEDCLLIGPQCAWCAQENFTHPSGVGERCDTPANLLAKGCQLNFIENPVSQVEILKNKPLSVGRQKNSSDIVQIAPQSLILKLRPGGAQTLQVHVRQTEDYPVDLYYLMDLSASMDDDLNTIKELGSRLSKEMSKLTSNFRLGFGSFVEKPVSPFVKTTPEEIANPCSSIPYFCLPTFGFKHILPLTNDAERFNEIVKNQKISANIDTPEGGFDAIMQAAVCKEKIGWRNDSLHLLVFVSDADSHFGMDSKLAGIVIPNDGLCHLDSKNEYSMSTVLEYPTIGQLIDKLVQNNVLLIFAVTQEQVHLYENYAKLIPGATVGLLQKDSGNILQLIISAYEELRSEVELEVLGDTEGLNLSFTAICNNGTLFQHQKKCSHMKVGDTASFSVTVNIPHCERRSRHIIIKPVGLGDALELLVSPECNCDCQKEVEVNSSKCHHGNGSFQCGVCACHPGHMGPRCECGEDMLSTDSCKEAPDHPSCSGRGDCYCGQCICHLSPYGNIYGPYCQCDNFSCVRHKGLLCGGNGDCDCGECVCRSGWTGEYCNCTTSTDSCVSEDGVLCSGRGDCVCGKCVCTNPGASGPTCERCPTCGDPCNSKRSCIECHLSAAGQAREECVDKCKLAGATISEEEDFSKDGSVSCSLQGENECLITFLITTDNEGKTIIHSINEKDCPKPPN

| IC50 | Structure (SMILES) |
| --- | --- |
| 50 to 250 nM | Cn1ncc2c(N[C@@H](CCN(CCCCc3ccc4c(n3)NCCC4)CCS(C)(=O)=O)C(=O)O)ncnc21 [Compound 101, (S)-2-((1-methyl-1H-pyrazolo[3,4-d]pyrimidin-4-yl)amino)-4-((2-(methylsulfonyl)ethyl) (4-(5,6,7,8-tetrahydro-1,8-naphthyridin-2-yl)butyl)amino) butanoic acid] |
| 250 to 1000 nM | COC[C@@H](F)CN(CCCCc1ccc2c(n1)NCCC2)CC[C@H](Nc1ccncn1)C(=O)O [Compound 127, (S)-4-(((S)-2-fluoro-3-methoxypropyl) (4-(5,6,7,8-tetrahydro-1,8-naphthyridin-2-yl)butyl)amino)-2-(pyrimidin-4-ylamino) butanoic acid] |
| 50 to 250 nM | O=C(O)[C@H](CCN(CCCCc1ccc2c(n1)NCCC2)CCC(F)F)Nc1ncc(Br)cn1 [Compound 131, (S)-2-((5-bromopyrimidin-2-yl)amino)-4-((3,3-difluoropropyl) (4-(5,6,7,8-tetrahydro-1,8-naphthyridin-2-yl)butyl)amino) butanoic acid] |
| 50 to 250 nM | O=C(O)[C@H](CCN(CCCCc1ccc2c(n1)NCCC2)CCC(F)F)Nc1ncc(C2CC2)cn1 [Compound 135, (S)-2-((5-cyclopropylpyrimidin-2-yl)amino)-4-((3,3-difluoropropyl) (4-(5,6,7,8-tetrahydro-1,8-naphthyridin-2-yl)butyl)amino) butanoic acid] |

More lines, now with the values behind:

| Structure (SMILES) | IC50 |
| --- | --- |
| O=C(O)[C@H](CCN(CCCCc1ccc2c(n1)NCCC2)C1CC1)Nc1ccncn1 [Compound 2, (S)-4-(cyclopropyl(4-(5,6,7,8-tetrahydro-1,8-naphthyridin-2-yl)butyl)amino)-2-(pyrimidin-4-ylamino) butanoic acid] | 250 to 1000 nM |
| CO[C@H](C)CN(CCCCc1ccc2c(n1)NCCC2)CC[C@H](Nc1ncncc1-c1ccccc1)C(=O)O [Compound 81, (S)-4-(((R)-2-methoxypropyl) (4-(5,6,7,8-tetrahydro-1,8-naphthyridin-2-yl)butyl)amino)-2-((5-phenylpyrimidin-4-yl)amino) butanoic acid] | < 50 nM |
| COC[C@@H](F)CN(CCCCc1ccc2c(n1)NCCC2)CC[C@H](Nc1ncc(C#N)cn1)C(=O)O [Compound 84, (S)-2-((5-cyanopyrimidin-2-yl)amino)-4-(((S)-2-fluoro-3-methoxypropyl) (4-(5,6,7,8-tetrahydro-1,8-naphthyridin-2-yl)butyl)amino) butanoic acid] | 250 to 1000 nM |
